Holding throughout (assay type): in vitro ADME
One series concerns the target CYP2C9 (Homo sapiens, UniProt P11712). Kind of series: Inhibition of CYP2C9-catalyzed tolbutamide 4-hydroxylation in human liver microsomes. Also noted: incubation mixtures containing pooled human liver microsomes (HLMs, XTreme 200, XenoTech); tissue XenoTech XTreme 200; host or cells: pooled human liver microsomes. The settings on record: HLMs. The text has this:
We used HLMs to determine the mechanisms and constants (Ki values) for […] A inhibition of CYP1A2, CYP2B6, CYP2C8, CYP2C9 and CYP3A. […] The substrates were used at concentrations approximately near to their respective Km values. […] The other conditions were the same as in the cytochrome P450 inhibition study. […] Phenomenex, Torrance, CA, USA) and analyzed using a Shimadzu LCMS 8060 triple-quadrupole mass spectrometer coupled with a Nexera X2 ultra high-performance liquid chromatography system (Shimadzu, Kyoto, Japan) equipped with an electrospray ionization interface. The mobile phase consisted of 0.1% formic acid in water (A) and 0.1% formic acid in acetonitrile (B). […] The flow rate was 0.2 mL/min. Electrospray ionization was performed in positive-ion mode at 4000 V or in negative-ion mode at -3500 V. The optimum operating conditions were determined as follows: vaporizer temperature, 300 °C; capillary temperature, 350 °C; collision gas (argon) pressure, 1.5 mTorr. Quantitation was conducted in selected reaction monitoring (SRM) modes with the precursor-to-product ion transition for each metabolite (Table 1 and Table 2). We analyzed the data with Shimadzu LabSolution LC-MS software. The IC50 values were calculated by WinNonlin software (Pharsight, Mountain View, CA, USA). […]

Series [1] has as its system other P450 isoforms (other than CYP2C8 and CYP2C9). Kind of series: Nine-P450 cocktail inhibition in human liver microsomes, statements on the other P450 isoforms. The note with it: human, pooled human liver microsomes; inhibitor 0.5 μM; HLMs; isoforms other than CYP2C8 and CYP2C9; read-out: Inhibition of the other P450 isoform-specific activities. As to the method:
(§1) The inhibitory potential of the five biflavonoids on the metabolism of nine P450 probe substrates was evaluated using previously developed methods with minor modifications. Biflavonoids were dissolved in methanol. The final concentration of methanol in the incubation mixture was 1.0% (v/v). We used these P450 probe substrates: phenacetin for CYP1A2, coumarin for CYP2A6, bupropion for CYP2B6, amodiaquine for CYP2C8, diclofenac for CYP2C9, omeprazole for CYP2C19, dextromethorphan for CYP2D6, chlorzoxazone for CYP2E1 and midazolam for CYP3A (Table 1). The incubation mixtures containing pooled human liver microsomes (HLMs, XTreme 200, XenoTech), P450 probe substrates, and inhibitor (0~20 µM) were pre-incubated at 37 °C for 5 min. The concentration range of the inhibitor varied (0, 0.002, 0.005, 0.02, 0.05, and 0.2 µM for CYP2C8; 0, 0.02, 0.05, 0.2, 0.5, and 2 µM for CYP2C9; 0, 0.5, 2, 5, 10, and 20 µM for other P450 isoforms). After pre-incubation, a reduced nicotinamide adenine dinucleotide phosphate (NADPH) generation system containing 1 unit/ml G6PDH, 1.3 mM β- nicotinamide adenine dinucleotide phosphate (β- NADP^+), 3.3 mM MgCl2, and 3.3 mM G6P was added to initiate a reaction, and further incubated for 10 min at 37 °C. The reaction was stopped by adding 50 μL of ice-cold acetonitrile containing 7 nM trimipramine (internal standard, IS). After centrifugation at 18,000 g (5 min, 4 °C), aliquots of supernatants were analyzed by LC–MS/MS (Shimadzu LCMS 8060 system, Shimadzu, Kyoto, Japan). All microsomal incubations were conducted in triplicate.
(§2) All metabolites and the IS were separated on a Kinetex XB-C18 column (100 × 2.10 mm, 2.6 μm, 100 Å; Phenomenex, Torrance, CA, USA) and analyzed using a Shimadzu LCMS 8060 triple-quadrupole mass spectrometer coupled with a Nexera X2 ultra high-performance liquid chromatography system (Shimadzu, Kyoto, Japan) equipped with an electrospray ionization interface. The mobile phase consisted of 0.1% formic acid in water (A) and 0.1% formic acid in acetonitrile (B). […] Electrospray ionization was performed in positive-ion mode at 4000 V or in negative-ion mode at −3500 V. The optimum operating conditions were determined as follows: vaporizer temperature, 300 °C; capillary temperature, 350 °C; collision gas (argon) pressure, 1.5 mTorr. Quantitation was conducted in selected reaction monitoring (SRM) modes with the precursor-to-product ion transition for each metabolite (Table 1 and Table 2).
(§3) We analyzed the data with Shimadzu LabSolution LC–MS software. The IC50 values were calculated by WinNonlin software (Pharsight, Mountain View, CA, USA). […]

Series [2] deals with CYP2C8 and CYP2C9 versus seven other P450s (CYP1A2, 2A6, 2B6, 2C19, 2D6, 2E1, 3A). The description is as above. The note with it: human, pooled human liver microsomes; amodiaquine and diclofenac activities versus seven other P450s. As to the method: as §1, §2, §3
The test system of series [3] is the other eight P450 enzymes (isoforms other than CYP2C8). Described as above. The settings on record: human, pooled human liver microsomes; isoforms other than CYP2C8; HLMs. Here is the method: as §1, §2, §3
Another series relates to other P450 isoforms. The description is as above. The note with it: inhibitor 5 μM; HLMs. Here is the method: as §1, §2, §3

Some results are limits rather than exact numbers.

Chain of CYP2C9 (P11712 whole entry): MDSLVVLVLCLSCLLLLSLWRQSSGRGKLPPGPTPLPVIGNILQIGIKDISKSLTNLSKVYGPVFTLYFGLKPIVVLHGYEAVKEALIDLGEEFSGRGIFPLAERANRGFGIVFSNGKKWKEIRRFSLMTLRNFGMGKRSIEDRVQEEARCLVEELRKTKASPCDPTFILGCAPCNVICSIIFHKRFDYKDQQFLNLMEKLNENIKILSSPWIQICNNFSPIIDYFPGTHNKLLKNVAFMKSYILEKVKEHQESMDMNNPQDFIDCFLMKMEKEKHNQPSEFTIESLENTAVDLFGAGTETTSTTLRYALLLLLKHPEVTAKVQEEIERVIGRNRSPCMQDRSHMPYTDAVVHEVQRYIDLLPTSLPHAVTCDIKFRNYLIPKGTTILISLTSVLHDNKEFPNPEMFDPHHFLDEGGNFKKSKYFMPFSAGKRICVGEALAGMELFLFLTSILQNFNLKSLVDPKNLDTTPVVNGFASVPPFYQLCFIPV

Consider `O=C1CC(c2cc(-c3c(O)ccc4c(=O)cc(-c5ccc(O)cc5)oc34)c(O)cc2O)Oc2cc(O)cc(O)c21` (stereo not drawn) [selamariscina A], for which the “Mode of Inhibition, CYP2C9 tolbutamide” value at CYP2C9 is listed as “Noncompetitive”. Moreover, the inhibition constant Ki on CYP2C9 (average ± standard error, triplicate) amounted to 65 ± 10 nM. Also, in series [1], the inhibition at 10 min, 0.5 µM was at most 21.8%. The selectivity ratio at 10 min in series [2] is above 50.

The molecule `CC(C)(O)c1ccccc1CC[C@@H](SCC1(CC(=O)O)CC1)c1cccc(/C=C/c2ccc3ccc(Cl)cc3n2)c1` [montelukast, reference compound] displayed a concentration for half-maximal inhibition (IC50) at 10 min in series [3] above 9730 nM. In the series on other P450 isoforms, the “Inhibition of the other six P450 isoforms” value was “negligible inhibition”.

These data come from article PMC7238120, “Strong and Selective Inhibitory Effects of the Biflavonoid Selamariscina A against CYP2C8 and CYP2C9 Enzyme Activities in Human Liver Microsomes” (Pharmaceutics, 2020).
